Results on 16 compounds are retold here after ChEMBL document CHEMBL1135945, “CoMFA and HQSAR of acylhydrazide cruzain inhibitors” (Bioorg Med Chem Lett, 2002).

In general, IC50 refers to the concentration that inhibits the measured activity by half. Low readings indicate greater potency, high ones weaker potency.

SMILES strings stand for the structures.

For the test, the target named is Cruzipain (Trypanosoma cruzi, UniProt P25779). In words: Inhibition of cruzain, the major cysteine protease from Trypanosoma cruzi.
Chain of Cruzipain (P25779 whole entry): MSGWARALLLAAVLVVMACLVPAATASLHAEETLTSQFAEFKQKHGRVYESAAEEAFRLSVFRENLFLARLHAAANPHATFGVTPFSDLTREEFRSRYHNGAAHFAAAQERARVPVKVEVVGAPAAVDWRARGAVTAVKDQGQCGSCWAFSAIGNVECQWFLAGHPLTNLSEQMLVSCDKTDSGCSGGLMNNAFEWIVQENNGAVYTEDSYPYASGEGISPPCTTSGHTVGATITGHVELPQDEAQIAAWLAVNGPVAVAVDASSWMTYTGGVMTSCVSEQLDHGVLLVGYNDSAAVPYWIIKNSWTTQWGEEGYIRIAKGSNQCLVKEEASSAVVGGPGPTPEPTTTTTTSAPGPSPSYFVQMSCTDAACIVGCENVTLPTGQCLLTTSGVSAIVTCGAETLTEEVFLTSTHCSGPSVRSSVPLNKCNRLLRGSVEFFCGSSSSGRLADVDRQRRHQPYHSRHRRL
Turning to `O=C(N/N=C/c1ccc(C(=O)O)o1)c1cccc([N+](=O)[O-])c1`, the IC50 was 331 µM.

Regarding `O=C(N/N=C/c1ccc(-c2cccc([N+](=O)[O-])c2)o1)c1ccc2ccccc2c1`, the IC50 is 6.03 µM.

On to `O=C(N/N=C/c1cc(Br)cs1)c1cnc2ccccc2c1`, for which the IC50 is 30.2 µM. Against the preceding compound, the IC50 is about 5-fold higher.

`COc1cc(OC)cc(C(=O)N/N=C/c2ccc(C(=O)O)o2)c1` showed an IC50 of 10 µM.

The compound `CSc1ccc(/C=N/NC(=O)c2cccc(C)c2O)s1` had an IC50 of 10 µM.

In the case of `COc1ccc(C(=O)N/N=C/c2ccoc2)c(OC)c1`, the IC50 was 166 µM.

`O=C(N/N=C/c1ccnc2ccccc12)c1ccccc1O` showed an IC50 of 30.2 µM.

In turn, `CN(C)c1ccc(/C=N/NC(=O)c2ccc(O)c(O)c2)c2ccccc12` showed an IC50 of 16.2 µM. This IC50 lies about 1.9-fold lower than the previous one.

`O=C(N/N=C/c1ccc([N+](=O)[O-])o1)c1cc2ccccc2cc1O` had an IC50 of 6.03 µM.

In turn, `O=C(N/N=C/c1ccc(-c2ccccc2Cl)o1)c1cc2ccccc2cc1O` had an IC50 of 0.603 µM.

As for `CN(C)c1ccc(/C=N/NC(=O)c2ccnc3ccccc23)c2ccccc12`, the IC50 was 6.03 µM.

In turn, `O=C(N/N=C/c1ccc(-c2ccc(Cl)cc2)o1)c1ccccc1O` had an IC50 of 100 µM. Compared with the last compound, the IC50 is about 17-fold higher.

As to `COc1ccc2cc(O)c(C(=O)N/N=C/c3ccc(-c4cc(C(F)(F)F)nn4C)s3)cc2c1`, the IC50 is 0.2 µM.

Compound `CN(C)c1ccc(/C=N/NC(=O)c2ccccc2)c2ccccc12` had an IC50 of 0.501 µM.

For the compound `O=C(N/N=C/c1ccc(-c2ccccc2[N+](=O)[O-])o1)c1ccccc1O`, half-maximal inhibition (IC50) was put at 20 µM.

In turn, `O=C(N/N=C/c1ccc([N+](=O)[O-])o1)c1cccc([N+](=O)[O-])c1` had an IC50 of 5.01 µM.
